The text below walks through data of patent publication US9475824B2, “Fused pyrimidines as inhibitors of p97 complex” (Cleave Biosciences, Inc., priority 2012, dated 2016).

SMILES strings stand for the structures. Some results are limits rather than exact numbers.

One data set can be described thus: in vitro. The following applies: human, Caco-2, pH 7.4.
A further data set has as its system K48-Ub, A549 cells. Put plainly: A549 K48 cell intensity (immunofluorescence, high content imaging). Format: cell-based. Conditions: Homo sapiens, 6 hr compound incubation. The procedure:
Image-analysis is used to generate quantitative data from these assays that can be fit to a four-parameter sigmoid curve to derive IC50 values. Substrates of the ubiquitin-proteasome system, such as p53, are monitored after tumor cell lines are incubated with compounds for several hours. Accumulation of these proteins indicates an inhibition of proteasome-mediated degradation. Accumulation of lysine-48 chain linkage of poly-ubiquitin is also monitored by immunofluorescence as an indicator of ubiquitin-proteasome system inhibition. Both LC3 and SQSTM1 are mediators of autophagy. The localization and amounts of these proteins are monitored by immunofluorescence and report on the activity and inhibition of autophagy in response to p97 inhibition.
Day 1, Cell Plating to Establish Colonies of Cancer Cells • Cell Plating: • Seed cells ˜16 hrs prior to compound treatment • Plate 25 μL of A549 cells in every well of 384-well plate using multidrop. • Two (2) black plates for IF at 2500 cells/well • Let plate sit at room temp for 10-15 minutes prior to putting in incubator to allow cells to stick in middle of plate. • One (1) white plate for viability at 500 cells/well.

Another data set concerns the target p97 (Homo sapiens, UniProt P55072). Briefly: P97 ATPase biochemical assay (ADP Glo). Conditions: 20 nM p97, 20 μM ATP, 37° C. 15 minutes. The protocol: The ATPase assay is performed according the following protocol: Purified enzyme (20 nM p97), substrate (20 μM ATP) and a dose titration of compounds are mixed in buffer (50 mM TRIS pH 7.5, 20 mM MgCl2, 0.02% TX-100, 1 mM DTT, 0.2% (v/v) glycerol) and incubated at 37° C. for 15 minutes. The reaction is terminated and the level of product generated is measured using the ADP Glo Assay Kit (Promega, Madison Wis.). Plotting product generated versus compound concentration and using a four-parameter fit model generates an IC50 value for each compounds.
The p97 assay is an initial screening assay used to determine inhibitory activity of the fused pyrimidine compounds of the invention against the p97 complex. As discussed above, inhibition of activity of the p97 proteosome complex can enable apoptosis and cause elimination of neoplastic cells (cancer cells). The method follows that of Christianson in Nat.
Assay Buffer is a mixture of 50 mM TRIS pH 7.5, 20 mM MgCl2, 0.02% TX-100, 1 mM DTT and 0.2% (v/v) Glycerol. […] The identification kit is an ADP glo kit (Promega): stop buffer, detection reagent.
0.5 μL compound serial diluted in DMSO (Final Conc. 10%)
2 μL ATP (Final Conc.=20 uM, diluted in assay buffer)
2.5 μL p97 (Final Conc.=20 nM, diluted in assay buffer)
Incubate at 37 degC for 15 min.
Add 5 μL of stop buffer, incubate at RT for 40 min.
Add 10 μL of detection reagent, incubate at RT for 30 min.
Read luminescence on Envision plate reader.
Plot normalized luminescence data against log-transformed concentration values and fit to a sigmoidal curve to determine IC50 values (done in Collaborative Drug Discovery software).
On the technique in general: In ADP-Glo the light output rises with the ADP produced.

Chain of p97 (P55072 whole entry, the tested form may be a part): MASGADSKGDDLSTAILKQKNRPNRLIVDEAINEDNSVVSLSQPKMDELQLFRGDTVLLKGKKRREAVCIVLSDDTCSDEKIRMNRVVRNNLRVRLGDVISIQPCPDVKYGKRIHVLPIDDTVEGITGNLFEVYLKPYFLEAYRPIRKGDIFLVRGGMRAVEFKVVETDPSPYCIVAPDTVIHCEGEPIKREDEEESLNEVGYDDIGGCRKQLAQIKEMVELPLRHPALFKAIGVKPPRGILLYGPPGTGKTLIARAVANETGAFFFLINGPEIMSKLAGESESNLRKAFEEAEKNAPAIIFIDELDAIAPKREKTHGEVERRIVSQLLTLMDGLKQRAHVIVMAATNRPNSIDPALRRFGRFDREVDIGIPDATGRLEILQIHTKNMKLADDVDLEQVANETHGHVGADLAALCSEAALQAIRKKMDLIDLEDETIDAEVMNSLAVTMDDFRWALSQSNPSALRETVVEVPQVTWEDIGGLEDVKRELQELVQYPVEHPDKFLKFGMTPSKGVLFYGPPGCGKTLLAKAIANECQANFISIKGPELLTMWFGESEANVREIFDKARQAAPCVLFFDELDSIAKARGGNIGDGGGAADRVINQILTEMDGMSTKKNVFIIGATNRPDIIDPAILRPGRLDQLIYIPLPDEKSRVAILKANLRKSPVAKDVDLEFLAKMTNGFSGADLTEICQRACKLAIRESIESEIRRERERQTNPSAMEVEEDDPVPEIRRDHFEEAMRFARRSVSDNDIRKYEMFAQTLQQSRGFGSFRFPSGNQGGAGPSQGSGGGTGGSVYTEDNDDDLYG

In general, Papp A→B refers to how fast a substance crosses the layer from the apical side. A higher Papp A→B goes with ready permeation. As a reminder, the Papp B→A is how fast a substance crosses the layer from the basolateral side. Turning to `CC(C)NCC(O)COc1cccc2ccccc12` (stereo not shown) [Propranolol], in the data set with Caco-2 cell monolayer (pH 7.4 Caco-2, A to B), the “Peff A B, Range” value is 18.50-36.80 ×E−6 cm/sec. Besides, the “Peff B A, Range” value in the data set with Caco-2 cell monolayer (pH 7.4 Caco-2, B to A) is 16.30-31.40 ×E−6 cm/sec. In the data set “in vitro”, this compound returned a Papp A→B at 90 min, 100 μM of 28.5 ×10⁻⁶ cm/s and an apparent permeability from basolateral to apical (Papp B→A) at 90 min, 100 μM of 20.9 ×10⁻⁶ cm/s.
As a reminder, the IC50 is the concentration that gives 50% inhibition. For `Cc1cc2c(S(C)(=O)=O)cccc2n1-c1nc2c(c(NCc3ccccc3)n1)COCC2` [compound 118, N-benzyl-2-(4-methanesulfonyl-2-methyl-1H-indol-1-yl)-5H,7H,8H-pyrano[4,3-d]pyrimidin-4-amine], the concentration for half-maximal inhibition (IC50) was below 10 µM in the data set with K48-Ub, A549 cells and below 0.3 µM at p97.
The like results for `COCCOc1cc2c(C#N)cccc2n1-c1nc2c(c(NCc3ccccc3)n1)CCCC2` [compound 137, 1-[4-(benzylamino)-5,6,7,8-tetrahydroquinazolin-2-yl]-2-(2-methoxyethoxy)-1H-indole-4-carbonitrile] were, in that order, below 10 µM and below 0.03 µM.
For the compound `Cc1cc2c(S(C)(=O)=O)cccc2n1-c1nc2c(c(NCc3ccccc3)n1)CCCC2` [compound 111, N-benzyl-2-(4-methanesulfonyl-2-methyl-1H-indol-1-yl)-5,6,7,8-tetrahydroquinazolin-4-amine], the IC50 is below 10 µM in the data set with K48-Ub, A549 cells and below 0.1 µM at p97.
The like results for `Cc1cc2c(C#N)cccc2n1-c1nc2c(c(NCc3ccccc3)n1)CNCC2` [compound 42, 1-[4-(benzylamino)-5H,6H,7H,8H-pyrido[4,3-d]pyrimidin-2-yl]-2-methyl-1H-indole-4-carbonitrile] were, in that order, below 10 µM and below 0.1 µM.
Regarding `COc1nc2c(C#N)cccc2n1-c1nc2c(c(NCc3ccccc3)n1)COCC2` [compound 106, 1-[4-(benzylamino)-5H,7H,8H-pyrano[4,3-d]pyrimidin-2-yl]-2-methoxy-1H-1,3-benzodiazole-4-carbonitrile], the IC50 in the data set on K48-Ub, A549 cells was below 10 µM; on p97 it was below 0.3 µM.
On to `Cc1cc2c(C(N)=O)cccc2n1-c1nc2c(c(NCc3ccc(F)cc3)n1)COCC2` [compound 122, 1-(4-{[(4-fluorophenyl)methyl]amino}-5H,7H,8H-pyrano[4,3-d]pyrimidin-2-yl)-2-methyl-1H-indole-4-carboxamide], for which the IC50 in the data set with K48-Ub, A549 cells is below 10 µM; against p97 it was below 0.1 µM.
The like results for `Cc1cc2c(C(N)=O)cccc2n1-c1nc2c(c(NCc3cccc(F)c3)n1)COCC2` [compound 136, 1-(4-{[(3-fluorophenyl)methyl]amino}-5H,7H,8H-pyrano[4,3-d]pyrimidin-2-yl)-2-methyl-1H-indole-4-carboxamide] were, in that order, below 10 µM and below 0.03 µM.
The like results for `CNC(=O)c1cccc2c1cc(C)n2-c1nc2c(c(NCc3ccccc3)n1)CCCC2` [compound 132, 1-[4-(benzylamino)-5,6,7,8-tetrahydroquinazolin-2-yl]-N-methyl-2-methyl-1H-indole-4-carboxamide] were, in that order, below 10 µM and below 0.03 µM.
On the same counts, the results for `Cc1cc2c(C(=O)O)cccc2n1-c1nc2c(c(NCc3ccccc3)n1)CCCC2` [compound 108, 1-[4-(benzylamino)-5,6,7,8-tetrahydroquinazolin-2-yl]-2-methyl-1H-indole-4-carboxylic acid] are below 10 µM and below 0.03 µM.
In the case of `CC(C)c1cc2c(C(N)=O)cccc2n1-c1nc2c(c(NCc3ccccc3)n1)CCCC2` [compound 128, 1-[4-(benzylamino)-5,6,7,8-tetrahydroquinazolin-2-yl]-2-(propan-2-yl)-1H-indole-4-carboxamide], the IC50 in the data set with K48-Ub, A549 cells is below 10 µM; against p97, below 0.1 µM.
The like results for `Cc1cc2c(C(N)=O)cccc2n1-c1nc2c(c(NCc3ccccc3)n1)CCCC2` [compound 90, 1-[4-(benzylamino)-5,6,7,8-tetrahydroquinazolin-2-yl]-2-methyl-1H-indole-4-carboxamide] were, in that order, below 10 µM and below 0.03 µM.
The like results for `Cc1nc2c(C(N)=O)cccc2n1-c1nc2c(c(NCc3ccccc3)n1)COCC2` [compound 93, 1-[4-(benzylamino)-5H,7H,8H-pyrano[4,3-d]pyrimidin-2-yl]-2-methyl-1H-1,3-benzodiazole-4-carboxamide] were, in that order, below 10 µM and below 0.1 µM.
The like results for `Cc1cc2c(C(=O)NCCN(C)C)cccc2n1-c1nc2c(c(NCc3ccccc3)n1)COCC2` [compound 84] were, in that order, below 10 µM and below 0.03 µM.
Take `Cc1cc2c(S(N)(=O)=O)cccc2n1-c1nc2c(c(NCc3ccccc3)n1)CCCC2` [compound 110, 1-[4-(benzylamino)-5,6,7,8-tetrahydroquinazolin-2-yl]-2-methyl-1H-indole-4-sulfonamide]: the IC50 was below 10 µM in the data set with K48-Ub, A549 cells and below 0.1 µM against p97.
For `NCc1cc2c(C(N)=O)cccc2n1-c1nc2c(c(NCc3ccccc3)n1)CCCC2` [compound 101, 2-(aminomethyl)-1-[4-(benzylamino)-5,6,7,8-tetrahydroquinazolin-2-yl]-1H-indole-4-carboxamide], the 50% inhibitory concentration (IC50) is below 10 µM in the data set with K48-Ub, A549 cells and below 0.03 µM on p97.
